Measured values reported in patent US20050261174A1, “Insecticidal activity of a cyclic peptide” (priority 2004, published 2005).
Several values for one entry are separate records, joined by “and”; a condition that tells them apart may be missing. Equal entries are not always repeated. Entries after “also recorded” stand apart in the source; their conditions may differ.

How the values were obtained:
Assay type in all cases: in vivo
[1] = system: beet armyworm (Spodoptera exigua); assay: Beet armyworm topical test
Method: Insecticidal Test for Beet Armyworm (Spodoptera exigua) in Topical Assays.
To prepare topical solutions, 0.5 mg of test compound was dissolved into 0.5 ML of a 90:10 acetone:water solvent. A volume of 1 or 2 μl of the test solutions was topically applied to each of early fourth-instar beet armyworm larvae. Six larvae (6 replications) were used for each treatment. This application rate was equivalent to 1 or 2 μg per larva. Treated larvae were individually placed in wells of 6-well plastic plates and fed an artificial diet. Observations were made at one, two and three days after treatment.

[2] = system: cotton aphid (Aphis gossypii); assay: Insecticidal test for cotton aphid, foliar spray on infested squash cotyledons; conditions: for % control: 3 days, population reduction versus untreated
Method: To prepare spray solutions, 0.5 mg of test compound was dissolved into 0.5 mL of a 90:10 acetone: water solvent. This 0.5 mL of chemical solution was added to 4.5 mL of water containing 0.025% Tween 20 surfactant to produce a 100 ppm spray solution. Lower concentrations were made by diluting the 100 ppm solution with water containing 0.025% Tween 20.
Squash cotyledons with a single cotyledon leaf were infested with cotton aphid (wingless adult and nymph) 16-20 hours prior to application of spray solution. The solution was sprayed with a hand-held Devilbiss sprayer on both sides of each infested squash cotyledon until runoff. Reference plants (solvent check) were sprayed with 0.025% Tween 20 containing 9% acetone. The plants were allowed to air dry and held for 3 days in a controlled room at 25° C. and 40% RH after which time the test was graded. Grading was by actual count using a dissecting microscope and comparison of test counts to the untreated check. Results are given in Table 2 as percent control based on population reduction versus the untreated.

[3] = system: green peach aphid (Myzus persicae); assay: Insecticidal test for green peach aphid, foliar spray on infested cabbage seedlings; conditions: for No. of live aphid, average / No. of live aphid, plant 1 / No. of live aphid, plant 2 / No. of live aphid, plant 3 / No. of live aphid, plant 4: graded after three days; for % control: three days, population reduction versus untreated
Method: Insecticidal Test for Green Peach Aphid (Myzus persicae).
Cabbage seedlings grown in 3-inch pots, with 2-3 small (3-5 cm) true leaves, were used as test substrate. The seedlings were infested with green peach aphids (wingless adult and nymph) 2-3 days prior to chemical application. Four seedlings were used for each treatment. To prepare spray solutions, 0.5 mg of test compound was dissolved into 0.5 mL of a 90:10 acetone:water solvent. This 0.5 mL of chemical solution was added to 4.5 mL of water containing 0.025% Tween 20 surfactant to produce a 100 ppm spray solution. Lower concentrations were made by diluting the 100 ppm solution with water containing 0.025% Tween 20.
A hand-held Devilbiss sprayer was used for spraying a solution to both sides of cabbage leaves until runoff. Reference plants (solvent check) were sprayed with 0.025% Tween 20 containing 9% acetone. Treated plants were held in a holding room for three days at approximately 25° C. and 40% RH prior to grading. Evaluation was conducted by counting the number of live aphids per plant under a microscope. Results are given in Table 3 as percent control based on population reduction versus the untreated.

[4] = system: tobacco budworm (Heliothis virescens); assay: Tobacco budworm dietary test; conditions: for Symptom, 1 day / Symptom, 3 day: second-instar larvae
Method: (§1) Insecticidal Test for Tobacco Budworm (Heliothis virescens), Beet Armyworm (Spodoptera exigua) and Cabbage Looper (Trichoplusia ni) in Dietary Assays.
(§2) Dietary assays were conducted in 128-well plastic trays. To prepare a 1000 ppm stock solution, 0.5 mg of test compound was dissolved into 0.5 mL of a 90:10 acetone:water solvent. The test solutions of 125 ppm and lower concentrations were made by sequentially diluting the stock solution with a 90:10 acetone: water solvent. A volume of 50 μl of the test solutions was pipetted upon the surface of 1 mL of lepidopteran diet (Southland Multi-Species Lepidopteran Diet) in each well of 128-well plastic trays. The highest application rate using the 125 ppm solution was equivalent to 3.1 μg/cm^2. For beet armyworm and cabbage looper, four wells (4 replications) were used for each treatment on each insect species. For tobacco budworm, eight wells (8 replications) were used for each treatment. A second-instar tobacco budworm, two second-instar beet armyworm or two early third-instar cabbage looper larvae were placed upon the treated diet in each well once the solvent had been air-dried. Trays containing the treated diet and larvae were covered with self-adhesive transparent sheets and held in a growth chamber at 25° C., 50-55% RH, and 16 h light: 8 h dark Observation were conducted 1 and 3 days after treatment and infestation.

[5] = system: cabbage looper (Trichoplusia ni); assay: Cabbage looper dietary test; conditions: for Symptom, 1 day / Symptom, 3 day: early third-instar larvae
Method: as §1, §2

[6] = system: beet armyworm (Spodoptera exigua); assay: Beet armyworm dietary test; conditions: for Symptom, 1 day / Symptom, 3 day: second-instar larvae
Method: as §1, §2

[7] = 4 PPM spray, graded after 3 days
[8] = 20 PPM spray, graded after 3 days
[9] = 100 PPM spray, graded after 3 days
[10] = 1.95 PPM (0.049 ug/cm2) on diet

## C/C=C1\NC(=O)[C@H]2CSSCC/C=C/[C@H](CC(=O)N[C@H](C(C)C)C(=O)N2)OC(=O)[C@H](C(C)C)NC1=O [compound of formula (I), FR901228]
[1]; 1 ug/larva topical, 1 day
  % Mortality, 1 day: 0%
[1]; 1 ug/larva topical
  % Mortality, 2 day: 17%
[1]; 1 ug/larva topical, 3 day
  % Mortality, 3 day: 67%
[1]; 2 ug/larva topical, 1 day
  % Mortality, 1 day: 0%
[1]; 2 ug/larva topical
  % Mortality, 2 day: 85%
[1]; 2 ug/larva topical, 3 day
  % Mortality, 3 day: 100%

## C/C=C1\NC(=O)C2CSSCC/C=C/C(CC(=O)NC(C(C)C)C(=O)N2)OC(=O)C(C(C)C)NC1=O (centres unmarked) [compound of formula (I), FR901228]
[1]; 1 ug/larva topical, early fourth-instar larvae, 1 day
  Symptom, 1 day: 2 dying w/duiresis, and 2 unable to right, and 2 small, 1 OK
[1]; 2 ug/larva topical, early fourth-instar larvae, 3 day
  Symptom, 3 day: all dead; also recorded: w/duiresis
[2]; 4 PPM spray
  % control: 87%
[2]; [7]
  No. of live aphid, average: 27
  No. of live aphid, plant 1: 27
  No. of live aphid, plant 2: 40
  No. of live aphid, plant 3: 64
  No. of live aphid, plant 4: 83
[2]; 20 PPM spray
  % control: 95.2%
[2]; [8]
  No. of live aphid, average: 10
  No. of live aphid, plant 1: 16
  No. of live aphid, plant 2: 4
[2]; 100 PPM spray
  % control: 100%
[2]; [9]
  No. of live aphid, average: 0
  No. of live aphid, plant 1: 0
  No. of live aphid, plant 2: 0
[3]; 20 PPM spray
  No. of live aphid, average: 55
  No. of live aphid, plant 1: 47
  No. of live aphid, plant 2: 53
  No. of live aphid, plant 3: 87
  No. of live aphid, plant 4: 32
  % control: 35.8%
[3]; 100 PPM spray
  No. of live aphid, average: 24
  No. of live aphid, plant 1: 8
  No. of live aphid, plant 2: 31
  No. of live aphid, plant 3: 30
  No. of live aphid, plant 4: 26
  % control: 72.1%
[4]; 1 PPM (0.025 ug/cm2) on diet
  % Dead, 1 day: 0%
  % Dead, 3 day: 0%
  Symptom, 1 day: none
[4]; 5 PPM (0.13 ug/cm2) on diet
  % Dead, 1 day: 0%
  % Dead, 3 day: 0%
  Symptom, 1 day: 80% size of UTC
  Symptom, 3 day: 60% size of UTC
[4]; 25 PPM (0.63 ug/cm2) on diet
  % Dead, 1 day: 0%
  % Dead, 3 day: 0%
  Symptom, 1 day: 60% size of UTC
  Symptom, 3 day: 40% size of UTC
[4]; 125 PPM (3.1 ug/cm2) on diet
  % Dead, 1 day: 0%
  % Dead, 3 day: 0%
[5]; [10]
  % Dead, 1 day: 0%
  % Dead, 3 day: 0%
  Symptom, 1 day: none
  Symptom, 3 day: none
[5]; 7.8 PPM (0.195 ug/cm2) on diet
  % Dead, 1 day: 0%
  % Dead, 3 day: 0%
  Symptom, 1 day: none
  Symptom, 3 day: 60% size of UTC
[5]; 31.3 PPM (0.78 ug/cm2) on diet
  % Dead, 1 day: 0%
  % Dead, 3 day: 0%
  Symptom, 1 day: none
  Symptom, 3 day: 40% size of UTC
[5]; 125 PPM (3.1 ug/cm2) on diet
  % Dead, 1 day: 25%
  % Dead, 3 day: 50%
[6]; [10]
  % Dead, 1 day: 0%
  % Dead, 3 day: 0%
  Symptom, 1 day: 90% size of UTC
  Symptom, 3 day: 30% size of UTC
[6]; 7.8 PPM (0.195 ug/cm2) on diet
  % Dead, 1 day: 0%
  % Dead, 3 day: 0%
  Symptom, 1 day: 70% size of UTC
  Symptom, 3 day: 15% size of UTC
[6]; 31.3 PPM (0.78 ug/cm2) on diet
  % Dead, 1 day: 0%
  % Dead, 3 day: 0%
  Symptom, 1 day: 50% size of UTC
  Symptom, 3 day: 10% size of UTC
[6]; 125 PPM (3.1 ug/cm2) on diet
  % Dead, 1 day: 0%
  % Dead, 3 day: 100%
  Symptom, 1 day: 30% size of UTC
  Symptom, 3 day: all dead
